Measurements as given in US6596701B1, “S-adenosyl methionine regulation of metabolic pathways and its use in diagnosis and therapy” (MediQuest Therapeutics, Inc., priority 1995, dated 2003).
Read-outs that look alike come from different tables or passages of the source.

Legend:
[1] = tested on: gastric mucosal stress ulcers; details: polyamine-stimulated healing, Wang et al.; cited from earlier work
SAM concentrations = details: Bacchi et al. 1987; cited from earlier work
puncture wounds = assay: Mouse puncture wound model, Experiment 3 (about 6 mm wounds, wound area, varied compositions); format: in vivo; details: comparison of Groups A-D, each compound 0.18 mg/ml
Procedure: This study was similar to Experiment 2, with the following changes. 1. […] 2. […] 3. Test or control compositions were applied daily. Compounds in each test composition were varied 4. N=10 mice per group 5. The each compound in the test compositions was present at a concentration of 0.18 mg/ml. [table]

[2] = molecular target: methyl transferase which acts on MBP; details: methyl transferase with subunits of 75 and 100 kDa; cited from earlier work
[3] = cited from earlier work
AD patients = details: Cohen et al. 1988; cited from earlier work
LDHκ = LDHκ activity in HeLa cell extracts with SAM added; format: biochemical, human; details: addition of SAM to the assay mixture
[4] = tested on: genetically diabetic mice; details: Reddi et al. 1988; cited from earlier work
cultured rat hepatocytes = details: within 6 hours, cited from earlier work
[5] = tested on: RNA polymerase II and synthesis of RNA; details: biotin-deficient rats, within 2 hours after injection of biotin; cited from earlier work
3T3 cells = details: cited from earlier work
RSV-infected cells = details: cited from earlier work
tumor [6] = details: Briggs 1959; tumor size attained prior to treatment was not reduced; cited from earlier work
injured skin = details: compared to injured skin of saline-treated controls, Smith et al. 1989; cited from earlier work
tumor [7] = details: mouse model, cited from earlier work
tRNA in tumor cells = details: tumor-bearing mice; cited from earlier work

NCCCC(N)(C(=O)O)C(F)F (racemic) [DL-α-difluoromethylornithine]
healing process of gastric mucosal stress ulcers [1]: significantly inhibited
increase SAM concentrations (SAM concentrations): ≤ 48 fold

NC1(C(=O)O)CC1 [ACC, 1-aminocyclopropanecarboxylic acid]
synergy in promoting wound healing (puncture wounds): act synergistically in promoting wound healing

Nc1ncnc2c1ncn2[C@@H]1O[C@H](CSCC[C@H](N)C(=O)O)[C@@H](O)[C@H]1O [SAH, S-adenosyl-L-homocysteine]
Ki [2]: 1000 nM

C[S+](CC[C@H](N)C(=O)O)C[C@H]1O[C@@H](n2cnc3c(N)ncnc32)[C@H](O)[C@@H]1O.C[S+](CC[C@H](N)C(=O)O)C[C@H]1O[C@@H](n2cnc3c(N)ncnc32)[C@H](O)[C@@H]1O.O=S(=O)([O-])[O-] (stereo partly drawn) [SAM sulfate]
stable for ([3]; 4° C.): 6 months

C[S+](CC[C@H](N)C(=O)O)C[C@H]1O[C@@H](n2cnc3c(N)ncnc32)[C@H](O)[C@@H]1O (stereo partly drawn) [SAM, S-adenosyl-L-methionine]
membrane fluidity (AD patients): increased of membrane fluidity
symptoms (AD patients): no improvement nor worsening of symptoms
increase in activity of LDHκ (LDHκ): 8-10 fold

O=C(O)CCCC[C@@H]1SC[C@@H]2NC(=O)N[C@@H]21 [biotin]
synergy in promoting wound healing (puncture wounds): act synergistically in promoting wound healing
glucose and insulin tolerance [4]: improves glucose and insulin tolerance
increase in glucokinase (cultured rat hepatocytes; required the presence of insulin): 4 fold
increase in cGMP (cultured rat hepatocytes): 3 fold
increase in RNA polymerase II [5]: 2 fold
increase in the synthesis of RNA [5]: 2 fold
GAPDH increased (3T3 cells; differentiation with biotin): 8 fold
aldolase increased (3T3 cells; differentiation with biotin): 20-30 fold
glycerophosphate dehydrogenase increased (3T3 cells; differentiation with biotin): 2,000 fold
actin, % of total protein after treatment (3T3 cells; from 12.7% prior to treatment with biotin): 3.2 % of total protein

C[S+](CC[C@H](N)C(=O)O)C[C@H]1O[C@@H](n2cnc3c(N)ncnc32)[C@H](O)[C@@H]1O.[Cl-] (stereo partly drawn) [chloride salt of SAM]
loss of activity per day ([3]; 25° C.): 10 % of activity per day

NC1(C(=O)O)CCCC1 [cycloleucine]
inhibition of cellular methylation (RSV-infected cells; RSV-infected cells, concentrations used): 95%
RSV-specific mRNAs found (RSV-infected cells; concentrations which inhibit 95% of cellular methylation): only the 35S viral mRNA is found

C[C@@H]1NC(=O)N[C@@H]1CCCCCC(=O)O [desthiobiotin, reference compound]
antitumor effects (tumor [6]): further tumor growth was prevented

NC(=O)c1cccnc1 [nicotinamide]
capillary density in injured skin (injured skin): increases the capillary density in injured skin significantly

Nc1nc2[nH]cc(CN[C@H]3C=C[C@H](O)[C@@H]3O)c2c(=O)[nH]1 [queuine]
effect on tumor (tumor [7]; Katze et al. 1980): shrinkage of the tumor
effect on tumor (tumor [7]; Nishimura et al. 1983, cancer of different type): no effect

Nc1nc2c(c(CN[C@H]3C=C[C@H](O)[C@@H]3O)cn2[C@@H]2O[C@H](CO)[C@@H](O)[C@H]2O)c(=O)[nH]1 [queuosine]
conversion of G-tRNA to QtRNA in tumor cells (tRNA in tumor cells): complete conversion

avidin: the biotin-binding protein avidin
antitumor effects (tumor [6]): further tumor growth was prevented
